The experiment concerns the target T1, Porcine dipeptidyl peptidase IV (Sus scrofa, UniProt P22411).
T1 construct: purchased Sigma D-7052
Description: Inhibition of dipeptidyl peptidase IV (DPP-IV) activity, Ala-Pro-AFC fluorimetric assay. It is filed as biochemical. Conditions: for IC50: 8 point concentration curves in duplicate, Ala-Pro-AFC 20 μM, Tris-HCl pH 8.0, 37° C.; for inhibition at 0.1 µM: test compound at 100 nM, read-out: Percent Inhibition of DPP-IV at 100 nM; for inhibition at 0.1 µM / inhibition at 1 µM: in duplicate; for inhibition at 1 µM: test compound at 1 uM, read-out: Percent Inhibition of DPP-IV at 1 uM. The procedure: Porcine dipeptidyl peptidase IV (Sigma, D-7052) is used. Test compound and/or vehicle is pre-incubated with enzyme (70 μU ? /ml) in Tris-HCl pH 8.0 for 15 minutes at 37° C. Ala-Pro-AFC (20 μM) is then added for a further 30 minutes incubation period. The concentration of proteolytic product, AFC, is then read spectrofluorimetrically. 8 point concentration curves in duplicate are used to calculate IC50 values, or percent inhibition is measured in duplicate at two dose levels.

The structures appear in SMILES notation.

T1 sequence (P22411 whole entry): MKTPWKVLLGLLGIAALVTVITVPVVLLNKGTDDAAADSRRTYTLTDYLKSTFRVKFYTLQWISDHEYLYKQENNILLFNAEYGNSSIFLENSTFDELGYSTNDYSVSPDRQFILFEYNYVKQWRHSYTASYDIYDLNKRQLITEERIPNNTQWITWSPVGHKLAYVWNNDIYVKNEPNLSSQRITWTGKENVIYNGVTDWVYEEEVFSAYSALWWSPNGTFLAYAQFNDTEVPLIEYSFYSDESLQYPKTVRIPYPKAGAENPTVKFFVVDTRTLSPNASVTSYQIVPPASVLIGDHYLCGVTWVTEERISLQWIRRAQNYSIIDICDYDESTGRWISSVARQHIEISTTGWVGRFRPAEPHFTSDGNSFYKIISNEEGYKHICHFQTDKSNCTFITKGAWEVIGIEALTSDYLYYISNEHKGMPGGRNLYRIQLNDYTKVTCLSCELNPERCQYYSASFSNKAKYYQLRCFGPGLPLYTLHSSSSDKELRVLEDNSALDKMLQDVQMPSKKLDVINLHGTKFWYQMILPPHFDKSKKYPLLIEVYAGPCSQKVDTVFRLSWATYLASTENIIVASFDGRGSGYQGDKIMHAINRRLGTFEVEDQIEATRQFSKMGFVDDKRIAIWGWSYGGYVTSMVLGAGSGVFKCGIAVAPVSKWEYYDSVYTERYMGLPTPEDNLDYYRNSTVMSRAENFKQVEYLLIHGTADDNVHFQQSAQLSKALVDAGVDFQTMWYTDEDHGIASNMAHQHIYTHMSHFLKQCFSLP

`CS(=O)(=O)NC12CC3CC(CC(NCC(=O)N4CCC[C@H]4C#N)(C3)C1)C2` [Example 1, (S)-1-[(3-methanesulfonamido-1-adamantyl)amino]acetyl-2-cyano-pyrrolidine]: the IC50 (commonly the point on the concentration scale where inhibition reaches its midpoint) is 59 nM.
With `CCS(=O)(=O)NC12CC3CC(CC(NCC(=O)N4CCC[C@H]4C#N)(C3)C1)C2` [Example 2, (S)-1-[(3-ethanesulfonamido-1-adamantyl)amino]acetyl-2-cyano-pyrrolidine], the inhibition – broadly, the change of the read-out against control, counted positive when it falls – at 0.1 µM stood at 60% and the inhibition at 1 µM came to 92%.
In the same order, the values of `N#C[C@@H]1CCCN1C(=O)CNC12CC3CC(C1)CC(NS(=O)(=O)CC(F)(F)F)(C3)C2` [Example 3, (S)-1-[(3-(2,2,2-trifluoro)-ethanesulfonamido-1-adamantyl)amino]acetyl-2-cyano-pyrrolidine] are 68% and 94%.
In turn, `N#C[C@@H]1CCCN1C(=O)CNC12CC3CC(C1)CC(NS(=O)(=O)c1ccc(F)cc1)(C3)C2` [Example 4, (S)-1-[(3-(4-fluorophenyl)sulfonamido-1-adamantyl)amino]acetyl-2-cyano-pyrrolidine] had an IC50 of 46 nM.
Turning to `N#Cc1ccc(NC23CC4CC(CC(NCC(=O)N5CCC[C@H]5C#N)(C4)C2)C3)nc1` [Example 5, 6-(3-(2-((S)-2-cyanopyrrolidin-1-yl)-2-oxoethylamino)-adamantylamino)nicotinonitrile], the inhibition at 0.1 µM was 96% and the inhibition at 1 µM was 99%.
In the case of `CN(C)S(=O)(=O)NC12CC3CC(CC(NCC(=O)N4CCC[C@H]4C#N)(C3)C1)C2` [Example 6, N′-(3-(2-((S)-2-cyanopyrrolidin-1-yl)-2-oxoethylamino)-adamantyl)-N,N-dimethyl-sulfamide], inhibition was half-maximal at 61 nM (IC50). This counts as double-digit nanomolar.
For the molecule `N#C[C@@H]1CCCN1C(=O)CNC12CC3CC(C1)CC(NC(=O)NS(=O)(=O)c1ccc(F)cc1)(C3)C2` [Example 7, 1-(3-(2-((S)-2-cyanopyrrolidin-1-yl)-2-oxoethylamino)-adamantyl)-3-(4-fluorophenylsulfonyl)urea], the half-inhibitory concentration (IC50) worked out at 70 nM. The IC50 values of the last two molecules are within 1.5-fold of each other.
